Experimental data published in US9302999B2, “Substituted triazoles as herbicides” (E. I. DU PONT DE NEMOURS AND COMPANY, priority 2012, dated 2016).

Tests used:
Format in all cases: in vivo
[1] = tested on: arrowleaf sida (Sida rhombifolia); assay: Test E pre-/postemergence: arrowleaf sida; settings: Preemergence, scale 0 to 100
Source text: (§1) Seeds of plant species selected from corn (Zea mays), soybean (Glycine max), velvetleaf (Abutilon theophrasti), lambsquarters (Chenopodium album), poinsettia, wild (wild poinsettia, Euphorbia heterophylla), pigweed, palmer (palmer pigweed, Amaranthus palmeri), waterhemp (common waterhemp, Amaranthus rudis), smartweed (ladysthumb smartweed, Polygonum persicaria), surinam grass (Brachiaria decumbens), crabgrass, large (large crabgrass, Digitaria sanguinalis), crabgrass, Brazil (Brazilian crabgrass, Digitaria horizontalis), panicum, fall (fall panicum, Panicum dichotomiflorum), foxtail, giant (giant foxtail, Setaria faberii), foxtail, green (green foxtail, Setaria viridis), goosegrass (Eleusine indica), johnsongrass (Sorghum halepense), ragweed (common ragweed, Ambrosia elation), barnyardgrass (Echinochloa crus-galli), sandbur (southern sandbur, Cenchrus echinatus), arrowleaf sida (Sida rhombifolia), ryegrass, Italian (Italian ryegrass, Lolium multiflorum), dayflower, (VA) (Virginia dayflower, Commelina virginica), field bindweed (Convolvulus arvensis), cocklebur (common cocklebur, Xanthium strumarium), morningglory (Ipomoea coccinea), nightshade (eastern black nightshade, Solanum ptycanthum), kochia (Kochia scoparia), nutsedge, yellow (yellow nutsedge, Cyperus esculentus) and beggarticks (hairy beggarticks, Bidens pilosa) were planted into a silt loam soil and treated preemergence with test chemicals formulated in a non-phytotoxic solvent mixture which included a surfactant. At the same time, plants selected from these crop and weed species were planted in pots containing a growing medium comprising spaghnum peat moss, vermiculite, wetting agent and starter nutrients and treated with postemergence applications of some of the test chemicals formulated in the same manner. Plants ranged in height from 2 to 18 cm for postemergence treatments (1- to 4-leaf stage).
(§2) Treated plants and controls were maintained in a greenhouse for 14 to 21 days, after which time all species were compared to controls and visually evaluated. Plant response ratings, summarized in Table E, are based on a scale of 0 to 100 where 0 is no effect and 100 is complete control. A dash (-) response means no test result.

[2] = tested on: velvetleaf (Abutilon theophrasti); assay: Test E pre-/postemergence: velvetleaf; settings: Preemergence, scale 0 to 100
Source text: as §1, §2

[3] = tested on: ryegrass, Italian (Italian ryegrass, Lolium multiflorum); assay: Test E pre-/postemergence: ryegrass, Italian; settings: Preemergence, scale 0 to 100
Source text: as §1, §2

[4] = tested on: cocklebur (common cocklebur, Xanthium strumarium); assay: Test E pre-/postemergence: cocklebur; settings: Preemergence, scale 0 to 100
Source text: as §1, §2

[5] = tested on: surinam grass (Brachiaria decumbens); assay: Test E pre-/postemergence: surinam grass; settings: Preemergence, scale 0 to 100
Source text: as §1, §2

[6] = tested on: ragweed (common ragweed, Ambrosia elation); assay: Test E pre-/postemergence: ragweed; settings: Preemergence, scale 0 to 100
Source text: as §1, §2

[7] = tested on: nutsedge, yellow (yellow nutsedge, Cyperus esculentus); assay: Test E pre-/postemergence: nutsedge, yellow; settings: Preemergence, scale 0 to 100
Source text: as §1, §2

[8] = tested on: dayflower, (VA) (Virginia dayflower, Commelina virginica); assay: Test E pre-/postemergence: dayflower, (VA); settings: Preemergence, scale 0 to 100
Source text: as §1, §2

[9] = tested on: soybean (Glycine max); assay: Test E pre-/postemergence: soybean; settings: Preemergence, scale 0 to 100
Source text: as §1, §2

[10] = tested on: waterhemp_RES1 (ALS/Triazine resistant common waterhemp, Amaranthus rudis); assay: Test F postemergence: waterhemp_RES1; settings: scale 0 to 100
Source text: (§3) Seeds of plant species selected from corn (Zea mays), soybean (Glycine max), velvetleaf (Abutilon theophrasti), lambsquarters (Chenopodium album), poinsettia, wild (wild poinsettia, Euphorbia heterophylla), pigweed, palmer (palmer pigweed, Amaranthus palmeri), waterhemp (common waterhemp, Amaranthus rudis), surinam grass (Brachiaria decumbens), crabgrass, Brazil (Brazilian crabgrass, Digitaria horizontalis), panicum, fall (fall panicum Panicum dichotomiflorum), crabgrass, large (large crabgrass, Digitaria sanguinalis), foxtail, giant (giant foxtail, Setaria faberii), foxtail, green (green foxtail Setaria viridis), goosegrass (Eleusine indica), ragweed (common ragweed, Ambrosia elatior), barnyardgrass (Echinochloa crus-galli), sandbur (southern sandbur, Cenchrus echinatus), arrowleaf sida (Sida rhombifolia), ryegrass, Italian (Italian ryegrass, Lolium multiflorum), dayflower, VA (Virginia (VA) dayflower, Commelina virginica), field bindweed (Convolvulus arvensis), cocklebur (common cocklebur, Xanthium strumarium), morningglory (Ipomoea coccinea), nightshade (eastern black nightshade, Solanum ptycanthum), kochia (Kochia scoparia), nutsedge, yellow (yellow nutsedge, Cyperus esculentus), johnsongrass (Sorghum halepense), smartweed (ladysthumb smartweed, Polygonum persicaria), and beggarticks (hairy beggarticks, Bidens pilosa), were planted into a silt loam soil and treated preemergence with test chemicals formulated in a non-phytotoxic solvent mixture which included a surfactant. At the same time, plants selected from these crop and weed species and also pigweed (Amaranthus retroflexus), waterhemp_RES1 (ALS/Triazine resistant common waterhemp, Amaranthus rudis) and waterhemp_RES2 (ALS/HPPD resistant common waterhemp, Amaranthus rudis) were planted in pots containing a planting medium comprising spaghnum peat moss, vermiculite, wetting agent and starter nutrients treated with postemergence applications of some of the test chemicals formulated in the same manner. Plants ranged in height from 2 to 18 cm for postemergence treatments (1- to 4-leaf stage).
as §2

[11] = tested on: smartweed (ladysthumb smartweed, Polygonum persicaria); assay: Test F pre-/postemergence: smartweed
Source text: as §3, §2

[12] = Preemergence, 16 g ai/ha, scale 0 to 100, 0 no effect, 100 complete control
[13] = Preemergence, 31 g ai/ha, scale 0 to 100, 0 no effect, 100 complete control
[14] = Preemergence, 125 g ai/ha, scale 0 to 100
[15] = Preemergence, 250 g ai/ha, scale 0 to 100
[16] = Postemergence, 250 g ai/ha, scale 0 to 100
[17] = Postemergence, 31 g ai/ha, scale 0 to 100
[18] = Postemergence, 125 g ai/ha, scale 0 to 100

Cc1nn(-c2ccc(C(F)(F)F)cn2)nc1Oc1ccnc(C(F)(F)F)c1 [Compound 23]
Plant response rating: Arrowleaf Sida ([1]; 16 g ai/ha): 0
Plant response rating: Arrowleaf Sida ([1]; 31 g ai/ha): 0
Plant response rating: Arrowleaf Sida ([1]; 62 g ai/ha): 0
Plant response rating: Arrowleaf Sida ([1]; 125 g ai/ha): 0
Plant response rating: Arrowleaf Sida ([1]; 250 g ai/ha): 35
Plant response rating: Velvetleaf ([2]; 16 g ai/ha): 0
Plant response rating: Velvetleaf ([2]; 31 g ai/ha): 0
Plant response rating: Velvetleaf ([2]; 62 g ai/ha): 10
Plant response rating: Velvetleaf ([2]; 125 g ai/ha): 65
Plant response rating: Velvetleaf ([2]; 250 g ai/ha): 65
Plant response rating: Ryegrass, Italian ([3]; 16 g ai/ha): 0
Plant response rating: Ryegrass, Italian ([3]; 31 g ai/ha): 0
Plant response rating: Ryegrass, Italian ([3]; 62 g ai/ha): 0
Plant response rating: Ryegrass, Italian ([3]; 125 g ai/ha): 0
Plant response rating: Ryegrass, Italian ([3]; 250 g ai/ha): 10
Plant response rating: Cocklebur ([4]; 16 g ai/ha): 0
Plant response rating: Cocklebur ([4]; 31 g ai/ha): 0
Plant response rating: Cocklebur ([4]; 62 g ai/ha): 0
Plant response rating: Cocklebur ([4]; 125 g ai/ha): 0
Plant response rating: Cocklebur ([4]; 250 g ai/ha): 0
Plant response rating: Surinam Grass ([5]; 16 g ai/ha): 0
Plant response rating: Surinam Grass ([5]; 31 g ai/ha): 0
Plant response rating: Surinam Grass ([5]; 62 g ai/ha): 10
Plant response rating: Surinam Grass ([5]; 125 g ai/ha): 20
Plant response rating: Surinam Grass ([5]; 250 g ai/ha): 20
Plant response rating: Ragweed ([6]; 16 g ai/ha): 0
Plant response rating: Ragweed ([6]; 31 g ai/ha): 0
Plant response rating: Ragweed ([6]; 62 g ai/ha): 0
Plant response rating: Ragweed ([6]; 125 g ai/ha): 0
Plant response rating: Ragweed ([6]; 250 g ai/ha): 25
Plant response rating: Nutsedge, Yellow ([7]; 16 g ai/ha): 0
Plant response rating: Nutsedge, Yellow ([7]; 31 g ai/ha): 0
Plant response rating: Nutsedge, Yellow ([7]; 62 g ai/ha): 0
Plant response rating: Nutsedge, Yellow ([7]; 125 g ai/ha): 15
Plant response rating: Nutsedge, Yellow ([7]; 250 g ai/ha): 15
Plant response rating: Dayflower, VA ([8]; 16 g ai/ha): 0
Plant response rating: Dayflower, VA ([8]; 31 g ai/ha): 0
Plant response rating: Dayflower, VA ([8]; 62 g ai/ha): 0
Plant response rating: Dayflower, VA ([8]; 125 g ai/ha): 5
Plant response rating: Dayflower, VA ([8]; 250 g ai/ha): 5
Plant response rating: Soybean ([9]; 16 g ai/ha): 0
Plant response rating: Soybean ([9]; 31 g ai/ha): 0
Plant response rating: Soybean ([9]; 62 g ai/ha): 0
Plant response rating: Soybean ([9]; 125 g ai/ha): 0
Plant response rating: Soybean ([9]; 250 g ai/ha): 20

Cc1nn(-c2ccnc(Cl)c2)nc1Cc1ccnc(C(F)(F)F)c1 [Compound 141]
Plant response rating, Waterhemp, Res1 ([10]; 8 g ai/ha): 90
Plant response rating, Waterhemp, Res1 ([10]; 16 g ai/ha): 95
Plant response rating, Waterhemp, Res1 ([10]; 31 g ai/ha): 95
Plant response rating, Waterhemp, Res1 ([10]; 62 g ai/ha): 95
Plant response rating, Waterhemp, Res1 ([10]; 125 g ai/ha): 95

CCc1nn(-c2ccc(F)c(F)c2)nc1Oc1ccnc(C(F)(F)F)c1 [Compound 171]
Plant response rating, Smartweed [11, 12]: 0
Plant response rating, Smartweed [11, 13]: 0
Plant response rating, Smartweed [11, 14]: 0
Plant response rating, Smartweed [11, 15]: 5

CCOc1nn(-c2ccc(F)cc2)nc1Cc1ccnc(C(F)(F)F)c1 [Compound 196, 4-[[5-ethoxy-2-(4-fluorophenyl)-2H-1,2,3-triazol-4-yl]methyl]-2-(trifluoromethyl)pyridine]
Plant response rating, Waterhemp, Res1 ([10]; 8 g ai/ha): 95
Plant response rating, Waterhemp, Res1 ([10]; 16 g ai/ha): 95
Plant response rating, Waterhemp, Res1 ([10]; 31 g ai/ha): 95
Plant response rating, Waterhemp, Res1 ([10]; 62 g ai/ha): 95
Plant response rating, Waterhemp, Res1 ([10]; 125 g ai/ha): 100

CCCc1nn(-c2ccc(F)c(F)c2)nc1Oc1ccnc(C(F)(F)F)c1 [Compound 172]
Plant response rating, Smartweed [11, 16]: 70
Plant response rating, Smartweed [11, 17]: 30
Plant response rating, Smartweed [11, 18]: 60
Plant response rating, Smartweed [11, 13]: 5
Plant response rating, Smartweed [11, 14]: 50
Plant response rating, Smartweed [11, 15]: 98
Plant response rating, Waterhemp, Res1 ([10]; 31 g ai/ha): 70
Plant response rating, Waterhemp, Res1 ([10]; 125 g ai/ha): 95
Plant response rating, Waterhemp, Res1 ([10]; 250 g ai/ha): 95

Cc1nn(-c2ccc(C(F)(F)F)c(F)c2)nc1Oc1ccnc(C(F)(F)F)c1 [Compound 148]
Plant response rating, Smartweed [11, 12]: 0
Plant response rating, Smartweed [11, 13]: 0
Plant response rating, Smartweed [11, 14]: 75
Plant response rating, Smartweed [11, 15]: 90

CCc1nn(-c2ccc(C(F)(F)F)cc2)nc1Oc1ccnc(C(F)(F)F)c1 [Compound 169]
Plant response rating, Smartweed [11, 16]: 35
Plant response rating, Smartweed ([11]; Postemergence, 16 g ai/ha, scale 0 to 100): 10
Plant response rating, Smartweed [11, 17]: 10
Plant response rating, Smartweed ([11]; Postemergence, 62 g ai/ha, scale 0 to 100): 15
Plant response rating, Smartweed [11, 18]: 25
Plant response rating, Smartweed [11, 12]: 0
Plant response rating, Smartweed [11, 13]: 0
Plant response rating, Smartweed [11, 14]: 40
Plant response rating, Smartweed [11, 15]: 95
Plant response rating, Waterhemp, Res1 ([10]; 16 g ai/ha): 85
Plant response rating, Waterhemp, Res1 ([10]; 31 g ai/ha): 90
Plant response rating, Waterhemp, Res1 ([10]; 62 g ai/ha): 90
Plant response rating, Waterhemp, Res1 ([10]; 125 g ai/ha): 95
Plant response rating, Waterhemp, Res1 ([10]; 250 g ai/ha): 95
